Earlier results, collected in publication PMC12304352, “Optimization of a GMP-compliant automated one-pot synthesis of Al[^18F]F-NOTA-Ubiquicidin29 − 41 for bacterial infection imaging by PET/CT” (EJNMMI Radiopharmacy and Chemistry, 2025).

Test system: methicillin-resistant S. aureus (MRSA)
Conditions: injected intravenously, ref Brouwer et al. [2006]
Source text: Ubiquicidin (UBI), a cationic antimicrobial peptide fragment, has emerged as a promising agent for infection imaging due to its selective binding to anionic bacterial membranes (Ferro-Flores et al. [2016]). […] Another UBI-derived peptide (UBI29 − 41) radiolabeled with technetium-99m, was used as a probe for real-time, whole- ...

## UBI31 − 38: synthetic ubiquicidin derivative composed of only eight amino acids (KVDENGKI; Small ribosomal subunit protein eS31; UniProt P62979 107-114, looked up, fragment)
  Efficacy against MRSA in a mouse infection model: somewhat reduced activity
